Results published in patent US11199497B2, “Fluorescent compounds as sensing agents” (OHIO NORTHERN UNIVERSITY, priority 2016, dated 2021).

Assays:
[1] = Emission spectrum on exposure to varying amounts of (NH4)2Fe(SO4)2.6H2O
Description: Compound 11 was dissolved in methanol and then exposed to varying amounts of FeCl3 (i.e., Fe^3+) or (NH4)2Fe(SO4)2.6H2O (i.e., Fe^2+). […] Therefore, Compound 11 may be used to detect Fe^3+ while in the presence of Fe^2+.

[2] = Shift in emission spectrum on exposure to varying amounts of FeCl3; settings: for red-shift in peak emission wavelength / Fe^3+ ions at which shift in emission spectrum is saturated: FeCl3; for total red-shift in peak emission wavelength: FeCl3, at saturation
Description: Two substituted chromones (Compound 11 and Compound 20) were dissolved in methanol and exposed to varying amounts of FeCl3 (i.e., Fe^3+). FIG. 4 illustrates the shift in emission spectrum of Compound 11 with increasing amounts of Fe^3+ ions. With about 10 equivalents of Fe^3+ ions, the shift in emission spectrum is saturated, with a total of about a 30 nm red-shift in peak emission wavelength. FIG. 5 illustrates the shift in emission spectrum of Compound 20 with increasing amounts of Fe^3+ ions. With about 10 equivalents of Fe^3+ ions, the shift in emission spectrum is saturated, with a total of about a 50 nm red-shift in peak emission wavelength.
Compound 11 was dissolved in various solvents and then exposed to varying amounts of FeCl3 (i.e., Fe^3+). […]

[3] = Emission spectrum on exposure to varying amounts of Pb(NO3)2 in different solvents
Description: Compound 20 was dissolved in methanol and then exposed to varying amounts of Pb(NO3)2 (i.e., Pb^2+). […] Therefore, a kit, method, system, or the like may utilize a specific solvent system for detection of lead or other ions. Alternatively, and especially where the metal ion concentration is unknown, a kit, method, system, or the like may utilize a series of solvent systems in parallel to determine a concentration of metal ions.
A 5 μM sample of Compound 25 in 3:1 tetrahydrofuran:methanol or 2:1 tetrahydrofuran:methanol was prepared and exposed to varying amounts of Pb(NO3)2 (i.e., Pb^2+) dissolved in deionized water.

[4] = Ion selectivity, visual inspection when excited at 365 nm; settings: 3:1 tetrahydrofuran:methanol
Description: Compound 25 was dissolved in 3:1 tetrahydrofuran:methanol and then exposed to varying amounts of Zn/SO4 (i.e., Zn^2+), (NH4)2Fe(SO4)2.6H2O (i.e., Fe^2+), Fe2O3 (i.e., Fe^3+), CuSO4 (i.e., Cu^2+), or Pb(NO3)2 (i.e., Pb^2+) each in deionized water. Upon visual inspection when excited at 365 nm, the sample exposed to Pb^2+turned green while all other samples remained blue.

[5] = Detection of lead in methanol extract of soil sample; settings: methanol filtrate diluted in 3:1 tetrahydrofuran:methanol
Description: A lead-free soil sample was collected, placed into a Buchner funnel, and soaked with 1 mL of 0.15 M Pb(NO3)2 in water to introduce lead to the soil. As a control sample, the same was performed with the lead-free soil without exposure to Pb^2+. After soaking, the soil samples were washed with 50 mL of methanol. A sample from each filtrate was diluted in 3:1 tetrahydrofuran:methanol and exposed to Compound 25. […] This example illustrates that the substituted chromones described herein may be useful in detecting ions from soil extracts.

[6] = Extraction of lead from water with octanol and triethylamine; settings: 3 mM Pb(NO3)2 in deionized water, 1 equivalent triethylamine
Description: A 3 mM Pb(NO3)2 sample was prepared in deionized water and Compound 25 was added to give a green fluorescence. The lead was then extracted from the water using either 1-octanol or 2-octanol each with 1 equivalent (relative to Compound 25) of triethylamine, which turned the octanol portion green. After washing thrice with 1-octanol, 99% of the Pb^2+had been extracted from the water. After washing twice with 2-octanol, 83% of the Pb^2+had been extracted from the water.

[7] = Visual detection limit of Pb(NO3)2 (color change blue to green); settings: 5 μM compound in 3:1 tetrahydrofuran:methanol, Pb(NO3)2 in deionized water
Description: The detection limit Pb(NO3)2 (i.e., Pb^2+) for Compound 25 in 3:1 tetrahydrofuran:methanol was tested by exposing samples of 5 μM Compound 25 to ever decreasing concentrations of Pb(NO3)2 dissolved in deionized water.
A 40 mM solution of Pb(NO3)2 (i.e., Pb^2+) was prepared in tap water and then diluted with 3:1 tetrahydrofuran:methanol to a lead concentration of 133 μM. The resultant sample was added to solutions of 5 μM sample of Compound 25 in 3:1 tetrahydrofuran:methanol. […] This example illustrates that the lead detection can be performed using tap water, which includes a variety of other ions.

With `COC(=O)C(C)(C)C1Oc2ccc(OC)cc2C(=O)/C1=C\O` (centres unmarked) [Compound 11, (Z)-methyl-2-(3-(hydroxymethylene)-6-methoxy-4-oxochroman-2-yl)-2-methylpropanoate] the “intensity change for the peak emission wavelength with increasing metal ion concentration” value ([1]; methanol (FIG. 6)) was “intensity decrease”, the “shift of peak emission wavelength” value ([1]; methanol, (NH4)2Fe(SO4)2.6H2O (FIG. 6)) was “does not exhibit appreciable shift” and the “red-shift in peak emission wavelength” value ([2]; 1:1 methanol:water) was “still exhibits a red-shift in peak emission wavelength”. The “intensity change for the peak emission wavelength with increasing metal ion concentration” value ([2]; methanol (FIG. 4)) was “intensity decrease”, the “Fe^3+ ions at which shift in emission spectrum is saturated” value ([2]; methanol) was “about 10 equivalents” and the “shift of peak emission wavelength” value ([2]; methanol, FeCl3 (FIG. 4)) was “significant red-shift”. The “total red-shift in peak emission wavelength” value ([2]; methanol) was roughly 30 nm, the “red-shift in peak emission wavelength” value ([2]; polar aprotic solvents such as tetrahydrofuran, acetonitrile, acetone) was “did not exhibit an appreciable red-shift” and the “red-shift in peak emission wavelength” value ([2]; polar protic solvents like water, methanol and mixtures thereof) was “exhibited an appreciable red-shift”.

In the case of `CCc1ccc2c(c1)C(=O)/C(=C\NS(=O)(=O)c1ccc(C)cc1)C(C(C)(C)C(=O)OC)O2` (centres unmarked) [Compound 20, (Z)-methyl 2-(6-ethyl-3-((4-methylphenylsulfonamido)meth-ylene)-4-oxochroman-2-yl)-2-methylpropanoate], the “Pb^2+ at max shift in peak emission wavelength” value ([3]; 1:1 tetrahydrofuran:methanol) was “about 5 equivalents”, the “Pb^2+ at max shift in peak emission wavelength” value ([3]; 3:1 tetrahydrofuran:methanol) was “about 3 equivalents” and the “shift in peak emission wavelength” value ([3]; THF alone) was “no appreciable shift”. The “Pb^2+ at which shift in peak emission wavelength maxes out” value ([3]; methanol) was 10 equivalents, the “change of peak emission wavelength in the presence of Pb^2+” value ([3]; methanol, 1:1 and 3:1 tetrahydrofuran:methanol, tetrahydrofuran (FIGS. 7-10), degree depends on solvent) was “red-shift and intensity decrease” and the “shift in peak emission wavelength at 1 equivalent Pb^2+” value ([3]; mixed tetrahydrofuran/methanol) was “does have an appreciable shift”. For the same compound, the “red-shift in peak emission wavelength” value ([2]; 1:1 methanol:water) was “does not”, the “Fe^3+ ions at which shift in emission spectrum is saturated” value ([2]; methanol) was “about 10 equivalents” and the “total red-shift in peak emission wavelength” value ([2]; methanol) was roughly 50 nm.

In the case of `COC(=O)C(C)(C)C1Oc2ccc(OC)cc2C(=O)/C1=C\NS(=O)(=O)c1ccc(OC)cc1` (centres unmarked) [Compound 25, (Z)methyl-2-(6-methoxy-3-(((4-methoxyphenyl)sulfonamido)methylene)-4-oxochroman-2-yl)-2-methylpropanoate], the “visual change of fluorescence in the presence of Pb^2+” value ([3]; 5 μM compound, 3:1 or 2:1 tetrahydrofuran:methanol) was “from blue to green”, the “change of peak emission wavelength in the presence of Pb^2+” value ([3]; 5 μM compound, 3:1 or 2:1 tetrahydrofuran:methanol, excitation 370 nm (FIGS. 11-12)) was “red-shift and intensity decrease” and the “fluorescence color of sample” value ([4]; (NH4)2Fe(SO4)2.6H2O in deionized water) was “remained blue”. For the same compound, the “fluorescence color of sample” value ([4]; CuSO4 in deionized water) was “remained blue”, the “fluorescence color of sample” value ([4]; Fe2O3 in deionized water) was “remained blue” and the “fluorescence color of sample” value ([4]; Pb(NO3)2 in deionized water) was “turned green”. For the same compound, the “fluorescence color of sample” value ([4]; Zn/SO4 in deionized water) was “remained blue”, the “color change with extract from soil sample exposed to Pb^2+” value [5] was “color change from blue to green” and the “Pb^2+ extracted from the water” value ([6]; washing thrice with 1-octanol) was 99%. For the same compound, the “Pb^2+ extracted from the water” value ([6]; washing twice with 2-octanol) was 83% and the “speed of color change observed” value [7] was “almost instantaneous”.
